Test results: the supplement of paper PMC8967900

Experiments:
Assay in all cases: selective drug sensitivity score (sDSS, relative to normal bone marrow) (sDSS (score)); higher = more potent and effective on the cell line relative to normal bone marrow cells
Conditions in all cases: 72 h
[1] = tested on: ALL-SIL
[2] = tested on: CCRF-CEM
[3] = tested on: CCRF-HSB2
[4] = tested on: COG-LL-332h
[5] = tested on: COG-LL-394h
[6] = tested on: COG-LL-402h
[7] = tested on: DND-41
[8] = tested on: HAL-01
[9] = tested on: JURKAT
[10] = tested on: KASUMI-9
[11] = tested on: LC4-1
[12] = tested on: MHH-CALL-2
[13] = tested on: MOLT-4
[14] = tested on: NALL-1
[15] = tested on: NALM-16
[16] = tested on: P12-ICHIKAWA
[17] = tested on: RCH-ACV
[18] = tested on: RPMI-8402
[19] = tested on: SEM cells
[20] = tested on: TMD5
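Also: ALL cell lines in 384-well plates, five doses spanning 10,000-fold, each plate scaled between vehicle and 100 µmol/L benzalkonium chloride controls, sDSS an adapted area-under-curve metric.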

Compound | selective drug sensitivity score [1] | selective drug sensitivity score [2] | selective drug sensitivity score [3] | selective drug sensitivity score [4] | selective drug sensitivity score [5] | selective drug sensitivity score [6] | selective drug sensitivity score [7] | selective drug sensitivity score [8] | selective drug sensitivity score [9] | selective drug sensitivity score [10] | selective drug sensitivity score [11] | selective drug sensitivity score [12] | selective drug sensitivity score [13] | selective drug sensitivity score [14] | selective drug sensitivity score [15] | selective drug sensitivity score [16] | selective drug sensitivity score [17] | selective drug sensitivity score [18] | selective drug sensitivity score [19] | selective drug sensitivity score [20]
CC(=O)c1cc2c(o1)C(=O)c1ccccc1C2=O [Napabucasin] (top concentration 20000 nM) | 2.22 | -1.08 | 0.12 | 2.32 | -9.68 | -3.48 | -0.18 | -0.38 | 0.52 | -1.28 | -0.38 | 3.72 | -1.28 | -7.38 | -11.8 | -1.28 | -1.38 | -6.08 | 0.52 | -1.28
CC1(C)CCC(c2ccc(Cl)cc2)=C(CN2CCN(c3ccc(C(=O)NS(=O)(=O)c4ccc(N[C@H](CCN5CCOCC5)CSc5ccccc5)c(S(=O)(=O)C(F)(F)F)c4)cc3)CC2)C1 [Navitoclax] (top concentration 10000 nM) | 20 | 17.4 | 8.92 | 8.42 | 19.2 | 23.4 | 15.1 | 14.8 | 9.02 | 19.8 | 22.2 | 21.1 | 15.6 | 22.9 | 19.2 | 17.6 | 3.32 | 7.42 | 14.2 | 16.9
CC(=O)c1c(C)c2cnc(Nc3ccc(N4CCNCC4)cn3)nc2n(C2CCCC2)c1=O [Palbociclib] (top concentration 10000 nM) | -2.12 | 4.38 | 1.68 | 3.68 | -5.62 | 8.78 | 2.48 | 1.48 | 1.58 | 8.78 | 4.38 | 3.68 | 1.08 | -1.72 | 1.98 | 4.78 | 16.1 | 5.98 | 4.98 | -5.22
COc1ccc(COc2cc3oc(=O)c4cc(C(C)O)ccc4c3cc2OC)cc1 (stereo not given) [Palomid-529] (top concentration 10000 nM) | -0.24 | 0.86 | 1.46 | 0.46 | -0.24 | 0.26 | -0.24 | -0.24 | 5.16 | 0.66 | 12.6 | 1.06 | 2.26 | -0.04 | -0.24 | -0.14 | -0.14 | 2.86 | 1.76 | -0.24
FC(F)(F)c1ccc(CNc2ccc(Cc3c[nH]c4ncc(Cl)cc34)cn2)cn1 [Pexidartinib] (top concentration 10000 nM) | -0.52 | -0.72 | 1.38 | -2.22 | -1.32 | -2.22 | -2.12 | 2.08 | 1.48 | 1.18 | 1.98 | -0.92 | -1.92 | -1.92 | -1.22 | 0.18 | 1.58 | 0.58 | 12.6 | -2.22
CO[C@H](C(=O)[C@@H](O)[C@@H](C)O)[C@@H]1Cc2cc3cc(O[C@H]4C[C@@H](O[C@H]5C[C@@H](O)[C@H](O)[C@@H](C)O5)[C@@H](O)[C@@H](C)O4)c(C)c(O)c3c(O)c2C(=O)[C@H]1O[C@H]1C[C@@H](O[C@H]2C[C@@H](O[C@H]3C[C@](C)(O)[C@H](O)[C@@H](C)O3)[C@H](O)[C@@H](C)O2)[C@H](O)[C@@H](C)O1 [Plicamycin] (top concentration 10000 nM) | -1.46 | -11.3 | -5.26 | -6.26 | 0.04 | 2.34 | 0.44 | -17.9 | -11.2 | -17.5 | -16.7 | -6.26 | -6.26 | -17 | 2.74 | -13.8 | -17.3 | -5.86 | -16.6 | -13.8
Cn1cc(CNCC2CCN(c3ncc(C(=O)NO)cn3)CC2)c2ccccc21 [Quisinostat] (top concentration 1000 nM) | 5.68 | 3.98 | 1.28 | 1.48 | 6.78 | 17.6 | 2.98 | -5.02 | 1.78 | 9.78 | 7.38 | 8.28 | 2.98 | -0.72 | -1.32 | 3.78 | 14.2 | 5.58 | 6.38 | 5.08
CC(C)(C)Cn1c(N)nc2ccc(-c3[nH]c(C(C)(C)C)nc3-c3ccc(F)cc3)nc21 [Ralimetinib] (top concentration 10000 nM) | 3.36 | 2.26 | 1.26 | 2.56 | 4.16 | 2.26 | 5.36 | -0.74 | 1.76 | 8.76 | 4.76 | 1.46 | 8.36 | -0.84 | -0.84 | 1.86 | 11.5 | 4.26 | 1.76 | -0.74
O=C(CCCCCCNC(=O)c1cnc(N(c2ccccc2)c2ccccc2)nc1)NO [Rocilinostat] (top concentration 10000 nM) | 9.14 | 4.64 | 6.54 | 3.34 | 3.74 | 8.14 | 3.54 | -0.56 | 2.74 | 6.64 | 8.24 | 11.2 | 5.04 | -0.66 | 3.34 | 5.34 | 9.24 | 4.64 | 4.74 | 0.04
